Assay [1] deals with HFL-1 cells. Kind of assay: IL8 assay in the presence of Human Serum Albumin. Type of assay: cell-based. Conditions: HFL1, S1P (5 μM) induced IL-8, HFL-1 cells, with 2% HSA, read-out: HSA IL8 EC50. The gist of the method:
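Cells serum-starved with 1.95% HSA, pre-treated 1 h with compound (10-point 1/3 dilution from 30 μM, 0.3% DMSO), then stimulated with 5 μM S1P for 16 to 24 h at 37° C. Supernatant IL-8 measured by ELISA.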

For assay [2], the target named is T1, human GPCR sphingosine 1-phosphate receptor 2 (S1PR2) (Homo sapiens, UniProt O95136).
T1 construct: host or cells: CHO
T1 sequence (O95136 whole entry): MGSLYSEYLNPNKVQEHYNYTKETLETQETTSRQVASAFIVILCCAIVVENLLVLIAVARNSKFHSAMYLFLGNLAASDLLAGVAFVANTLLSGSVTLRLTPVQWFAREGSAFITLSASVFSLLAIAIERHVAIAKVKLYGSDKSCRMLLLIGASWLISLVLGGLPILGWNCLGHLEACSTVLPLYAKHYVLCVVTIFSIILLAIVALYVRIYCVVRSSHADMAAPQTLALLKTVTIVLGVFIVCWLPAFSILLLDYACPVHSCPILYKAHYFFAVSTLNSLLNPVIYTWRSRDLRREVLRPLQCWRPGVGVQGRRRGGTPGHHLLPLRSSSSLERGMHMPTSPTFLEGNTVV
The assay can be described thus: S1P2 antagonist assay (Ca2+ flux, S1P at EC80). Conditions: CHO-S1PR2 cells, highest concentration 20 μM. The class given is cell-based. In outline:
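CHO cells stably overexpressing human S1PR2, serum-starved 1 h and loaded with Fluo8 dye, were read for 3 min after compound addition, then stimulated with S1P at EC80 after 15 min at 37 °C. Top concentration 20 μM in a 10-point 1/3 series; Ca2+ fluorescence ratio normalized to vehicle and S1P EC80, giving EC50.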
Background: Calcium flux is commonly read through the fluorescence of an indicator in the cells.

The target of assay [3] is T2, S1PR2 (Homo sapiens, UniProt O95136).
T2 construct: expressed in transfected cells
T2 sequence (O95136 whole entry): as above
Kind of assay: GTP-γS binding assay ([35S]GTPγS, S1P at EC80, S1PR2 membranes). The class given is biochemical. Particulars: membranes from stable cell line over expressing S1PR2, read-out: S1PR2 EC. In outline: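 Compounds tested against S1P at its EC80 on membranes (2.5 μg/well) from a stable S1PR2-overexpressing line, pre-incubated with 1 μM GDP 15 min at 4 °C. Buffer: 20 mM Tris pH 7.5, 10 mM MgCl2, 100 mM NaCl, 0.1% fatty-acid-free BSA, 50 ug/ml saponin. Incubated 4 h at room temperature; [35S]GTPγS binding read by WGA SPA beads.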

Assay [4] concerns the target T3, human GPCR sphingosine 1-phosphate receptor 1 (S1PR1) (Homo sapiens, UniProt P21453).
T3 construct: host or cells: CHO
Kind of assay: S1PR1 selectivity assay (Ca2+ flux, antagonist). Type of assay: cell-based. Conditions: S1P1 antagonist EC50, CHO cells overexpressing human S1PR1 and Gq protein. The gist of the method:
(§1)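 CHO cells stably overexpressing human S1PR1 or S1PR5 with Gq were preincubated with compound 15 min at 37 °C, then stimulated with S1P at EC80 (S1PR1) or an S1PR5-specific agonist (S1PR5). Ca2+ fluorescence was read for 3 min; 10-point 1/3 dilutions from 20 μM final, normalized to vehicle and EC80 trigger, gave EC50.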

Assay [5] concerns HFL-1 cells. Kind of assay: IL8 assay (S1P induced IL-8 production). The class given is cell-based. Conditions: Homo sapiens, HFL1; S1P (1 μM) induced IL-8, HFL-1 cells, without HSA. In outline:
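Serum-starved human fetal lung fibroblasts were preincubated with compound for 1 h at 37° C (10-point, 1/3 dilution, top 30 μM, 0.3% DMSO). S1P at 1 μM final was then added for 16–24 h, and IL-8 in the supernatant was measured by ELISA.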

Assay [6] has as its target T4, human GPCR sphingosine 1-phosphate receptor 5 (S1PR5) (Homo sapiens, UniProt Q9H228).
T4 construct: host or cells: CHO
The assay can be described thus: S1PR5 selectivity assay (Ca2+ flux, antagonist, S1PR5 specific agonist trigger). The class given is cell-based. Conditions: S1P5 antagonist EC50, CHO cells overexpressing human S1PR5 and Gq protein. In outline:
as §1

Structures are written as SMILES. pEC50, pIC50: −log10 of the molar value.

T4 sequence (Q9H228 whole entry): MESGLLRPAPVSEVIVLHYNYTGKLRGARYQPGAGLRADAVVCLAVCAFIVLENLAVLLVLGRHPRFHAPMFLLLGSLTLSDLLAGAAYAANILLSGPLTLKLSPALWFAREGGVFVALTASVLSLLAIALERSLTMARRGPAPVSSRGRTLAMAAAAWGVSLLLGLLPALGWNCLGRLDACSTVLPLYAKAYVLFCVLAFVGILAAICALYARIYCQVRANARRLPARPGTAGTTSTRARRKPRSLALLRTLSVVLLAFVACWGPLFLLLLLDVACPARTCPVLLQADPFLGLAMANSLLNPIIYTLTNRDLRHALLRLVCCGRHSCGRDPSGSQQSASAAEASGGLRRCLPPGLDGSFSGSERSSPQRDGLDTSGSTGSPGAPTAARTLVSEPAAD
T3 sequence (P21453 whole entry): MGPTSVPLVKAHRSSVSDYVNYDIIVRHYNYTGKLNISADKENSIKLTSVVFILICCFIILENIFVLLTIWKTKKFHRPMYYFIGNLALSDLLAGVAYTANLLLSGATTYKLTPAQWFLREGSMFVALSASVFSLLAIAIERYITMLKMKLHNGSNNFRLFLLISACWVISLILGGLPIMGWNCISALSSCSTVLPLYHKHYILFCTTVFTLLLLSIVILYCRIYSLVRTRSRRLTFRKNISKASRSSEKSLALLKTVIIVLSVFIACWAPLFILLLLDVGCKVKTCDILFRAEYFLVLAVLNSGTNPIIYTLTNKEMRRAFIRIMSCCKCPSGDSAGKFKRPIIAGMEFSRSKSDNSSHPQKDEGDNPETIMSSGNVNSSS

With `Cc1cc(CNC(=O)Nc2cc(Cl)nc(OCC(F)F)c2)nnc1N1CCOC(C(F)(F)F)C1` (stereo not drawn) [Compound 89, 1-[2-chloro-6-(2,2-difluoroethoxy)-4-pyridyl]-3-[[5-methyl-6-[2-(trifluoromethyl)morpholin-4-yl]pyridazin-3-yl]methyl]urea], in assay [1], the pIC50 was 5.80. Besides, the pEC50 in assay [2] is 7.47; in assay [3], 6.37; in assay [4], 5.42; in assay [5], 7.48; in assay [6] it was 6.08.
As for `Cc1cc(CNC(=O)Nc2cc(Cl)nc(OCC(F)F)c2)nnc1N1CC(S(C)(=O)=O)C1` [Compound 92, 1-[2-chloro-6-(2,2-difluoroethoxy)-4-pyridyl]-3-[[5-methyl-6-(3-methylsulfonyl-azetidin-1-yl)pyridazin-3-yl]methyl]urea], the pIC50 in assay [1] is 5.00. In addition, the pEC50 in assay [2] is 6.73; in assay [3], 6.33; in assay [4] it was ≤ 4.70; in assay [5] it was 6.36; in assay [6] it was ≤ 4.70.
Turning to `Cc1cc(CNC(=O)Nc2cc(OC3CCOCC3)nc(C(F)(F)F)c2)nnc1-c1cn(C)nc1C(F)(F)F` [Compound 40, 1-[[5-methyl-6-[1-methyl-3-(trifluoromethyl)pyrazol-4-yl]pyridazin-3-yl]methyl]-3-[2-tetrahydropyran-4-yloxy-6-(trifluoromethyl)-4-pyridyl]urea], the pIC50 in assay [1] is 5.41. In addition, the pEC50 is 6.54 in assay [2]; 5.97 in assay [3]; 5.29 in assay [4]; 6.85 in assay [5]; 5.18 in assay [6].
For `CCOc1nc(C(F)(F)F)cc(NC(=O)NCc2cc(C)c(-c3cn(C)nc3C(F)(F)F)nn2)c1CC` [Compound 46, 1-[2-ethoxy-3-ethyl-6-(trifluoromethyl)-4-pyridyl]-3-[[5-methyl-6-[1-methyl-3-(trifluoromethyl)pyrazol-4-yl]pyridazin-3-yl]methyl]urea], the pIC50 in assay [1] was 5.00. In addition, the pEC50 in assay [2] was 7.76; in assay [3] it was 7.01; in assay [4], 5.18; in assay [5], 7.59; in assay [6], 5.18.
`CCOc1cc(NC(=O)NCc2cc(C)c(N3CCC(F)(F)C3)nn2)cc(Cl)n1` [Compound 81, 1-(2-Chloro-6-ethoxy-pyridin-4-yl)-3-[6-(3,3-difluoro-pyrrolidin-1-yl)-5-methyl-pyridazin-3-ylmethyl]-urea]: the pIC50 in assay [1] was 5.00. Also, the pEC50 in assay [2] is 8.22; in assay [3], 6.71; in assay [4] it was 5.18; in assay [5], 7.49; in assay [6], 5.42.
Take `CCOc1nc(C)cc(N/C(=N/C#N)NCc2cc(C)c(-c3cn(C)nc3C(F)(F)F)nn2)c1C` [Compound 78, 2-cyano-1-(2-ethoxy-3,6-dimethyl-4-pyridyl)-3-[[5-methyl-6-[1-methyl-3-(trifluoromethyl)pyrazol-4-yl]pyridazin-3-yl]methyl]guanidine]: the pIC50 in assay [1] was 5.90. Also, the pEC50 in assay [2] was 6.97; in assay [3], 6.06; in assay [4], ≤ 4.70; in assay [5], 5.96; in assay [6] it was ≤ 4.70.
As to `Cc1cc(CNC(=O)Nc2cc(OCC(F)F)nc(N3CC(F)(F)C3)c2)nnc1-c1cn(C)nc1C(F)(F)F` [Compound 48, 1-[2-(3,3-difluoroazetidin-1-yl)-6-(2,2-difluoroethoxy)-4-pyridyl]-3-[[5-methyl-6-[1-methyl-3-(trifluoromethyl)pyrazol-4-yl]pyridazin-3-yl]methyl]urea], the pIC50 in assay [1] was 6.98. Further, the pEC50 was 7.57 in assay [2]; 6.81 in assay [3]; 5.29 in assay [4]; 7.62 in assay [5]; ≤ 4.70 in assay [6].
For `Cc1cc(NC(=NC#N)NCc2cc(C)c(-c3cn(C)nc3C(F)(F)F)nn2)c(C)c(OCC(F)F)n1` [Compound 79, 2-cyano-1-[2-(2,2-difluoroethoxy)-3,6-dimethyl-4-pyridyl]-3-[[5-methyl-6-[1-methyl-3-(trifluoromethyl)pyrazol-4-yl]pyridazin-3-yl]methyl]guanidine], in assay [1], the pIC50 was 5.15. The pEC50 is 6.26 in assay [2]; 5.67 in assay [3]; ≤ 4.70 in assay [4]; 6.36 in assay [5]; ≤ 4.70 in assay [6].

The values are drawn from patent US20190388421A1, “NOVEL COMPOUNDS AND PHARMACEUTICAL COMPOSITIONS THEREOF FOR THE TREATMENT OF FIBROSIS” (Galapagos NV, priority 2016, published 2019).
